Test results from patent EP4273147A1, “SUBSTITUTED SPIROLACTAMS, SALTS THEREOF AND THEIR USE AS HERBICIDALLY ACTIVE SUBSTANCES” (Bayer Aktiengesellschaft, priority 2022, dated 2023).

Experiments:
[1] = test system: ZEAMX; test: Pre-emergence effects on crop plants (Table D1); type: in vivo, Zea mays; details: crop plant; application rate 320 g/ha; visual grading after ca. 3 weeks
[2] = test system: ORYZA; test: Pre-emergence effects on crop plants (Table D3); details: crop plant; application rate 320 g/ha; visual grading after ca. 3 weeks
[3] = test system: VERPE; test: Herbicidal pre-emergence action (Table A11); type: in vivo, Veronica persica; details: application rate 1280 g/ha; visual grading after ca. 3 weeks
Outline: (§1)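 Paired sowings (monocot weed with dicot weed) in potted sandy loam, seeds soil-covered.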

[4] = test system: ZEAMX; test: Post-emergence effects on crop plants (Table F1); type: in vivo, Zea mays; details: application rate 320 g/ha, crop plant ZEAMX
Excerpt: (§2) 2 to 3 weeks after sowing, the test plants were sprayed in the single-leaf stage.

[5] = test system: VIOTR; test: Herbicidal post-emergence action, section E (Table E10); type: in vivo, Viola tricolor; details: application rate 320 g/ha; assessed visually after ca. 3 weeks
Excerpt: as §2

[6] = test system: LOLRI; test: Herbicidal pre-emergence action (Table A3); type: in vivo, Lolium rigidum; details: application rate 1280 g/ha; visual grading after ca. 3 weeks
Outline: as §1

[7] = test system: POAAN; test: Herbicidal pre-emergence action (Table A7); type: in vivo, Poa annua; details: visual grading after ca. 3 weeks
Outline: as §1

[8] = test system: BRSNW; test: Pre-emergence effects on crop plants (Table D5); type: in vivo, Brassica napus; details: crop plant; application rate 320 g/ha; visual grading after ca. 3 weeks
[9] = test system: BRSNW; test: Post-emergence effects on crop plants (Table F5); type: in vivo, Brassica napus; details: application rate 80 g/ha, crop plant BRSNW
Excerpt: as §2

[10] = test system: SETVI; test: Herbicidal post-emergence action, section E (Table E8); type: in vivo, Setaria viridis; details: application rate 80 g/ha; assessed visually after ca. 3 weeks
Excerpt: as §2

[11] = test system: VERPE; test: Herbicidal post-emergence action (Table B10); type: in vivo, Veronica persica; details: application rate 1280 g/ha
Outline: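 Treated at one-leaf stage (2–3 weeks after sowing in sandy loam, greenhouse-grown). Visual efficacy rating after about 3 weeks; 0% = like controls, 100% = complete kill.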

[12] = test system: ECHCG; test: Herbicidal post-emergence action, section E (Table E5); type: in vivo, Echinochloa crus-galli; details: application rate 320 g/ha; assessed visually after ca. 3 weeks
Excerpt: as §2

[13] = test system: TRZAS; test: Pre-emergence effects on crop plants (Table D2); type: in vivo, Triticum aestivum; details: crop plant; application rate 320 g/ha; visual grading after ca. 3 weeks
Excerpt: Seeds of mono- and dicotyledonous weed plants and crop plants were sown, in plastic or organic planting pots, in sandy loam and covered with soil. The compounds according to the invention, formulated in the form of wettable powders (WP) or as emulsifiable concentrates (EC), were applied to the surface of the covering soil as aqueous suspension or emulsion, with the addition of 0.5% of an additive, at an application rate of 600 1 of water/ha (converted).
Following treatment, the pots were placed in a greenhouse and kept under optimum growth conditions for the test plants.

[14] = test system: GLXMA; test: Post-emergence effects on crop plants (Table F4); type: in vivo, Glycine max; details: application rate 320 g/ha, crop plant GLXMA
Excerpt: as §2

[15] = test system: SETVI; test: Herbicidal pre-emergence action (Table A5); type: in vivo, Setaria viridis; details: visual grading after ca. 3 weeks
Outline: as §1

[16] = test system: ORYZA; test: Post-emergence effects on crop plants (Table F3); type: in vivo, Oryza sativa; details: application rate 320 g/ha, crop plant ORYZA
Excerpt: as §2

[17] = test system: ECHCG; test: Herbicidal pre-emergence action, section C (Table C6); type: in vivo, Echinochloa crus-galli; details: application rate 320 g/ha; visual grading after ca. 3 weeks
[18] = test system: SETVI; test: Herbicidal pre-emergence action, section C (Table C10); type: in vivo, Setaria viridis; details: visual grading after ca. 3 weeks
[19] = test system: ECHCG; test: Herbicidal pre-emergence action (Table A2); type: in vivo, Echinochloa crus-galli; details: visual grading after ca. 3 weeks
Outline: as §1

[20] = test system: ALOMY; test: Herbicidal pre-emergence action (Table A9); type: in vivo, Alopecurus myosuroides; details: application rate 1280 g/ha; visual grading after ca. 3 weeks
Outline: as §1

[21] = test system: TRZAS; test: Post-emergence effects on crop plants (Table F2); type: in vivo, Triticum aestivum; details: application rate 320 g/ha, crop plant TRZAS
Excerpt: as §2

[22] = test system: POLCO; test: Herbicidal pre-emergence action, section C (Table C9); type: in vivo, Polygonum convolvulus; details: application rate 320 g/ha; visual grading after ca. 3 weeks
[23] = test system: GLXMA; test: Pre-emergence effects on crop plants (Table D4); type: in vivo, Glycine max; details: crop plant; application rate 80 g/ha; visual grading after ca. 3 weeks
[24] = test system: STEME; test: Herbicidal pre-emergence action (Table A6); type: in vivo, Stellaria media; details: application rate 320 g/ha; visual grading after ca. 3 weeks
Outline: as §1

[25] = test system: DIGSA; test: Herbicidal pre-emergence action, section C (Table C5); type: in vivo, Digitaria sanguinalis; details: application rate 320 g/ha; visual grading after ca. 3 weeks
[26] = test system: DIGSA; test: Herbicidal pre-emergence action (Table A12); type: in vivo, Digitaria sanguinalis; details: application rate 320 g/ha; visual grading after ca. 3 weeks
Outline: as §1

[27] = test system: ALOMY; test: Herbicidal post-emergence action (Table B2); type: in vivo, Alopecurus myosuroides; details: application rate 1280 g/ha; rated visually after about 3 weeks
Protocol: Seeds of mono- and dicotyledonous weed plants were placed in plastic pots in sandy loam soil (doubly sown with in each case one species of mono- or dicotyledonous weed plants per pot), covered with soil and cultivated in a greenhouse under controlled growth conditions. 2 to 3 weeks after sowing, the test plants were treated at the one-leaf stage. […] After the test plants had been kept in the greenhouse under optimum growth conditions for about 3 weeks, the activity of the preparations was rated visually in comparison to untreated controls. For example, 100% activity = the plants have died, 0% activity = like control plants.

Compound | pre-emergence activity against ORYZA [2] | pre-emergence activity against VERPE [3] | post-emergence activity against ZEAMX [4] | post-emergence activity against VIOTR [5] | pre-emergence activity against BRSNW [8] | post-emergence activity against BRSNW [9] | pre-emergence activity against TRZAS [13] | post-emergence activity against GLXMA [14] | post-emergence activity against ORYZA [16] | pre-emergence activity against ECHCG [17] | post-emergence activity against TRZAS [21] | further results
O=C1N(Cc2cccc(F)c2Cl)CCCC12CCCN(Cc1cccc(F)c1Cl)C2=O (racemic) [I-047] | 0% | 90% | 10% | 80% | 20% | 20% | 20% | 20% | 0% | 80% | 20% | pre-emergence activity against ZEAMX [1]: 20%; pre-emergence activity against LOLRI [6]: 90%; pre-emergence activity against POAAN ([7]; application rate 1280 g/ha): 100%; post-emergence activity against SETVI [10]: 80%; post-emergence activity against VERPE [11]: 90%; post-emergence activity against ECHCG [12]: 80%; pre-emergence activity against SETVI ([15]; application rate 1280 g/ha): 100%; pre-emergence activity against SETVI ([18]; application rate 80 g/ha): 80%; pre-emergence activity against ECHCG ([19]; application rate 320 g/ha): 90%; pre-emergence activity against ALOMY [20]: 100%
O=C1N(Cc2cc(F)ccc2Cl)CCCC12CCCN(Cc1cc(F)ccc1Cl)C2=O (racemic) [I-069] | 20% | 90% | 20% | 90% | 0% | 0% | 0% | 20% | 0% | 80% | 0% | pre-emergence activity against POLCO [22]: 80%; pre-emergence activity against POAAN ([7]; application rate 320 g/ha): 100%; pre-emergence activity against GLXMA [23]: 0%; pre-emergence activity against STEME [24]: 90%; pre-emergence activity against SETVI ([15]; application rate 320 g/ha): 100%; pre-emergence activity against SETVI ([18]; application rate 320 g/ha): 100%; pre-emergence activity against DIGSA [25]: 100%; pre-emergence activity against ECHCG ([19]; application rate 1280 g/ha): 90%; pre-emergence activity against DIGSA [26]: 100%; post-emergence activity against ALOMY [27]: 100%
